Measurements from US20050181034A1, “Formulation of liposomal derivatives of phenylalanine” (WILEX AG, priority 2002, published 2005).
Like-named read-outs stand apart in the source and are kept apart here.

Assays:
[1] = Concentration in plasma, bile and organs after s.c. administration in rats; format: in vivo; conditions: rat; for concentration at 24 h: female, Wistar, sc
Procedure: (§1) Female wistar rats, 240-300 g body weight (Charles River-Wiga, Sulzfeld), were treated with the active ingredient WX-UK1 in the form of an aqueous solution or with the liposomal formulations 1-4 described in Example 1. The animals each received 1 dose/day over a period of 10 days. The administrations took place in the region of the flank (between shoulder and rear limbs) so that the animals were unable to reach the injection site with their paws. The injection sites were approx. 1 cm apart, no site being injected more than once. The first five injections took place on the left side, and the second five injections on the right side. The dose was usually 3 mg of active ingredient/kg of body weight, i.e. 0.9 mg of active ingredient was administered for an average body weight of 300 g. Radiolabeled active ingredient (3H-WX-UK1) was administered in some cases.
(§2) 24 h after the last injection, the animals were anaesthetized (ethylurethane, 1.4 g/kg i.p.), and citrated blood was obtained from the retroorbital venous plexus; citrated plasma was obtained by centrifugation at 1200×g for 10 min. The bile duct was then dissected, and bile was obtained for 15 min. Subsequently, the areas of skin at the injection sites were examined and the growth findings on dissection were recorded.
The animals were then sacrificed, and various organs (heart, kidney, liver, spleen) were dissected. The active ingredient content in the plasma, bile and organs was determined by HPLC [standard method using Nucleosil 7 C18 columns (Macherey-Nagel, Düren), acetonitrile/water/perchloric acid 30/70/0.04, 1 ml/min] after prepurification using Chromabond C18 solid-phase extraction columns (Macherey-Nagel, Duren). When ^3H-WX-UK1 was used, the active ingredient concentration was determined immediately after lyophilization of the samples by measuring the radioactivity in a liquid scintillation counter.

[2] = Tolerability of s.c. administration in rats (behavior, palpation, dissection, histology scores); format: in vivo; design: key to Behavior of the animals (score): 0: normal; slight scratching in 1st hour; 2: scratching and signs of pain; 3: still marked impairment after 2 h; key to Palpation consecutive (score): 0: unremarkable; 1: slight, isolated thickenings/indurations; 2: persistent thickenings/indurations, coalescing; 3: additional lesions, inflammations; conditions: rat
Procedure: as §1
The animals were weighed before each injection and observed for 2 h after each injection, and before each further injection the previous injection sites were palpated. The behavior of the animals and the palpation findings were recorded.
The following score was used to evaluate the observed impairments:
Behavior of the animals after the injection (2 h)
Consecutive Palpation Findings
as §2
The following score was used to evaluate the growth changes observed:
Final Observations, Growth Findings during Dissection
Skin samples were dissected from the regions of the injections, fixed in formalin and examined histologically (hematoxylin/eosin stain). The following score was used to evaluate the histologically visible changes: […]

[3] = s.c. 3 mg/kg 1 dose/day 10 days, 24 h after last injection, single experiment, listed as Control, 3 mg/kg

CCOC(=O)N1CCN(C(=O)[C@H](Cc2cccc(C(=N)N)c2)NS(=O)(=O)c2c(C(C)C)cc(C(C)C)cc2C(C)C)CC1 [WX-UK1, Nα-(2,4,6-triisopropylphenylsulfonyl)-3-amidino-(L)-phenylalanine 4-ethoxycarbonylpiperazide]
concentration at 24 h ([1]; bile, 3 mg/kg, s.c. 3 mg/kg 1 dose/day 10 days, 24 h after last injection, single experiment, read-out: Concentration Bile): 3100 ng/mL | concentration at 24 h ([1]; heart, 3 mg/kg, s.c. 3 mg/kg 1 dose/day 10 days, 24 h after last injection, single experiment, read-out: Organ content Heart): 840 ng/g | concentration at 24 h ([1]; kidney, 3 mg/kg, s.c. 3 mg/kg 1 dose/day 10 days, 24 h after last injection, single experiment, read-out: Organ content Kidney): 2300 ng/g | concentration at 24 h ([1]; liver, 3 mg/kg, s.c. 3 mg/kg 1 dose/day 10 days, 24 h after last injection, single experiment, read-out: Organ content Liver): 180 ng/g | concentration at 24 h ([1]; plasma, 3 mg/kg, s.c. 3 mg/kg 1 dose/day 10 days, 24 h after last injection, single experiment, read-out: Concentration Plasma): < 50 ng/mL | concentration at 24 h ([1]; spleen, 3 mg/kg, s.c. 3 mg/kg 1 dose/day 10 days, 24 h after last injection, single experiment, read-out: Organ content Spleen): 690 ng/g | Organ content Heart [1, 3]: 1.0 µg/g | Organ content Kidney [1, 3]: 2.5 µg/g | Organ content Liver [1, 3]: 0.36 µg/g | Organ content Spleen [1, 3]: 0.65 µg/g | Concentration in the plasma ([1]; s.c., determined only by using 3H-WX-UK1): < 100 ng/mL | Behavior of the animals (score) ([2]; 2 h after s.c. injection): 1 | Impression final (score, findings during dissection) ([2]; 24 h after last injection): 2.5 | Skin histology (FIG. 1, FIG. 3, magnification 25x) ([2]; after s.c. administration): strong inflammatory reaction | Palpation consecutive (score) ([2]; previous s.c. injection sites): 1 | Score (total impairment), Mean ([2]; s.c., mean of the two experiments): Mean = 7.5 | Score (total impairment of the animals) ([2]; s.c., sum of the part scores): 7.5
